In assay [1] the test system is hippocampal neurons derived from LRRK2 BAC transgenic mice. The settings on record: dose-dependent manner.
The next assay deals with LRRK2 (Homo sapiens, UniProt Q5S007). Briefly: biochemical.

From patent publication US20140228384A1, “ASSAYS AND BIOMARKERS FOR LRRK2” (Genentech, Inc., priority 2011, published 2014) come the findings set out here.

LRRK2, sequence (Q5S007 whole entry): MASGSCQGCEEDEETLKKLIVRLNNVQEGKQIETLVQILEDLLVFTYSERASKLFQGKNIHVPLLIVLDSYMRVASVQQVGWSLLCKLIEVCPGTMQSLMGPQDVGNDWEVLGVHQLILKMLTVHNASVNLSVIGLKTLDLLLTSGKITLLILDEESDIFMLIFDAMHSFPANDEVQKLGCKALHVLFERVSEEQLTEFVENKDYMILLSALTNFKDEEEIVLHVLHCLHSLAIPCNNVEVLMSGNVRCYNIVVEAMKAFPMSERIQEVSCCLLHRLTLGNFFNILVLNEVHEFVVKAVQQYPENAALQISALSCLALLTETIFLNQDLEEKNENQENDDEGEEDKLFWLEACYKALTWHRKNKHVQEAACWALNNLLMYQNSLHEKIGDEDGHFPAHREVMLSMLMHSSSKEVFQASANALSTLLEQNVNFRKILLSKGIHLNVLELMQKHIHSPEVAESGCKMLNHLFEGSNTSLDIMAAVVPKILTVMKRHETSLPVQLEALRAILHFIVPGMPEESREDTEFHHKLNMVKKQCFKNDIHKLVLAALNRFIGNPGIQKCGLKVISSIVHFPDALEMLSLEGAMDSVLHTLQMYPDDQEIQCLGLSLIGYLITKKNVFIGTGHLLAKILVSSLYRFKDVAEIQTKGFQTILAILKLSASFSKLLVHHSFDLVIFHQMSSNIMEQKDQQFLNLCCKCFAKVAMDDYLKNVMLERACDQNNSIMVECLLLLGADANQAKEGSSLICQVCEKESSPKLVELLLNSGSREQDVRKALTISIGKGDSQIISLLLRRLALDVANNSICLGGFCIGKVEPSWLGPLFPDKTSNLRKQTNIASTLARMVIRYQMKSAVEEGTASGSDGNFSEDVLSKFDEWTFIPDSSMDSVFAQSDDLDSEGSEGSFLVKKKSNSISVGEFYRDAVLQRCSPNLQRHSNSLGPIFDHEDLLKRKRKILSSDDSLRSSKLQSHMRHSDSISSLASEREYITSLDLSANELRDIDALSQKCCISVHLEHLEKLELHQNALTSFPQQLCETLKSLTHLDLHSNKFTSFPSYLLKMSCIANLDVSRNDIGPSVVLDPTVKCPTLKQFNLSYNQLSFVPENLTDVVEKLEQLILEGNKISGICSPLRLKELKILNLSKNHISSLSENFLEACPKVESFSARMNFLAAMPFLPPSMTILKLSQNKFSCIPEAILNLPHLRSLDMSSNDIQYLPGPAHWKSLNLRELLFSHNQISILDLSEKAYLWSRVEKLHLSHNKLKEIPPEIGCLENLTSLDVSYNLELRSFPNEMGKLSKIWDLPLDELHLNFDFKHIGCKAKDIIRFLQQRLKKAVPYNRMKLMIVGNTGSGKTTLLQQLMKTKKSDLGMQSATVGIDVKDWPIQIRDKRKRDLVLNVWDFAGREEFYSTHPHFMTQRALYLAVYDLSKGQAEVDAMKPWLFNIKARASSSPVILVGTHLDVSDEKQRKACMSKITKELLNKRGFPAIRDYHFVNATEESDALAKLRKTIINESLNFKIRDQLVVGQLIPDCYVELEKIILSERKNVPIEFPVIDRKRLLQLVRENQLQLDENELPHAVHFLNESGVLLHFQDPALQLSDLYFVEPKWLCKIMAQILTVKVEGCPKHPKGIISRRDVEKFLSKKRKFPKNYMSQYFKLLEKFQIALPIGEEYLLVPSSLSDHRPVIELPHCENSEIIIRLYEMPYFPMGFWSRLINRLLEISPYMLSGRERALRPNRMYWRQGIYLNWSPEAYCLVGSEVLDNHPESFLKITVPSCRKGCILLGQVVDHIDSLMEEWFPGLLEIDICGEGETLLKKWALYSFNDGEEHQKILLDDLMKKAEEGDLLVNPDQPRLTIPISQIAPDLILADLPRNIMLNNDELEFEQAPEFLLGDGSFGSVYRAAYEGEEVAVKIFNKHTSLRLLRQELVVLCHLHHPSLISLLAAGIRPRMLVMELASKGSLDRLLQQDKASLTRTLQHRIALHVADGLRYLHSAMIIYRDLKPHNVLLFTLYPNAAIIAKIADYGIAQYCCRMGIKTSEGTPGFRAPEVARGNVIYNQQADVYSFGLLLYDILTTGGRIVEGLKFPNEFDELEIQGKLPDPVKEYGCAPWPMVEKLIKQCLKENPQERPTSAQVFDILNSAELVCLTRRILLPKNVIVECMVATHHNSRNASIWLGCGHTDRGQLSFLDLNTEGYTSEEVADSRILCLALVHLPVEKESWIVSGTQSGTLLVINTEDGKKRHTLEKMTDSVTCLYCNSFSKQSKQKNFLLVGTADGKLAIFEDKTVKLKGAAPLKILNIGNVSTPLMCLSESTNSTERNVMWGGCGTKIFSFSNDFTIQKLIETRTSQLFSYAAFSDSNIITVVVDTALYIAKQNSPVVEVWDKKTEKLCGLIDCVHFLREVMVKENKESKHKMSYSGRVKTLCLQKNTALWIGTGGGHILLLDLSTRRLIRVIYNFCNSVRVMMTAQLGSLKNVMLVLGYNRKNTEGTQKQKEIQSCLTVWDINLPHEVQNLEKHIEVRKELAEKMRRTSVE

Broadly, the Ki is a dissociation constant, usually derived from enzyme kinetics or from competition with a known ligand. Regarding `CNc1nc(Nc2ccc(C(=O)N3CCOCC3)cc2OC)ncc1C(F)(F)F` [G1023, [3-methoxy-4-(4-methylamino-5-trifluoromethyl-pyrimidin-2-ylamino)-phenyl]-morpholin-4-yl-methanone], in assay [1], the “neurite outgrowth defect (total neurite length)” value is “reversed neurite outgrowth defect”. Also, the Ki at LRRK2 is approximately 4 nM.
